Source: the NIST ThermoML archive (doi:10.1016/j.fluid.2005.06.010)

Assay: xn = mol fraction of the nth substance listed
Details: Fluid (supercritical or subcritical phases), Vibrating tube method

c1ccc2ccccc2c1 [naphthalene] + O=C=O
Details | mass density [kg/m3]
323.07 K, 21967 kPa, x1 = 0.0049 | 814.97
323.07 K, 21991 kPa, x1 = 0.0235 | 840.23
323.07 K, 22035 kPa, x1 = 0.0093 | 823.39
323.07 K, 22055 kPa, x1 = 0.0144 | 828.6
323.07 K, 23011 kPa, x1 = 0.0144 | 836.78
323.07 K, 23014 kPa, x1 = 0.0049 | 824.8
323.07 K, 23024 kPa, x1 = 0.0235 | 848.46
323.07 K, 23037 kPa, x1 = 0.0093 | 832.27
323.07 K, 23975 kPa, x1 = 0.0144 | 844.56
323.07 K, 24012 kPa, x1 = 0.0235 | 855.79
323.07 K, 24013 kPa, x1 = 0.0093 | 840.35
323.07 K, 24015 kPa, x1 = 0.0049 | 833.51
323.07 K, 25007 kPa, x1 = 0.0235 | 862.81
323.07 K, 25048 kPa, x1 = 0.0093 | 848.36
323.08 K, 12879 kPa, x1 = 0.0173 | 702.14
323.08 K, 13019 kPa, x1 = 0.0173 | 705.93
323.08 K, 13536 kPa, x1 = 0.0173 | 719.07
323.08 K, 14042 kPa, x1 = 0.0173 | 730.6
323.08 K, 15088 kPa, x1 = 0.0173 | 750.8
323.08 K, 16012 kPa, x1 = 0.0173 | 766
323.08 K, 17038 kPa, x1 = 0.0173 | 780.79
323.08 K, 18011 kPa, x1 = 0.0173 | 793.15
323.08 K, 19021 kPa, x1 = 0.0173 | 804.74
323.08 K, 20018 kPa, x1 = 0.0173 | 815.17
323.08 K, 21012 kPa, x1 = 0.0173 | 824.64
323.08 K, 22051 kPa, x1 = 0.0173 | 833.83
323.08 K, 23040 kPa, x1 = 0.0173 | 842.05
323.08 K, 24014 kPa, x1 = 0.0173 | 849.58
323.08 K, 24688 kPa, x1 = 0.0173 | 854.56
323.11 K, 11710 kPa, x1 = 0.0065 | 608.68
323.11 K, 11886 kPa, x1 = 0.0065 | 618.53
323.11 K, 12112 kPa, x1 = 0.0065 | 630.1
323.11 K, 12597 kPa, x1 = 0.0065 | 651.76
323.11 K, 13175 kPa, x1 = 0.0065 | 672.88
323.11 K, 14114 kPa, x1 = 0.0065 | 700.29
323.11 K, 14946 kPa, x1 = 0.0065 | 719.89
323.11 K, 15974 kPa, x1 = 0.0065 | 740.17
323.11 K, 17091 kPa, x1 = 0.0065 | 758.86
323.11 K, 18018 kPa, x1 = 0.0065 | 772.31
323.11 K, 19119 kPa, x1 = 0.0065 | 786.49
323.11 K, 19947 kPa, x1 = 0.0065 | 796.13
323.11 K, 21027 kPa, x1 = 0.0065 | 807.77
323.11 K, 22102 kPa, x1 = 0.0065 | 818.31
323.11 K, 23244 kPa, x1 = 0.0065 | 828.6
323.11 K, 23905 kPa, x1 = 0.0065 | 834.23
323.11 K, 24345 kPa, x1 = 0.0065 | 837.73
323.13 K, 10131 kPa, x1 = 0.0038 | 441.7
323.13 K, 10204 kPa, x1 = 0.0038 | 452.21
323.13 K, 10370 kPa, x1 = 0.0038 | 473.73
323.13 K, 10546 kPa, x1 = 0.0038 | 495.19
323.13 K, 10713 kPa, x1 = 0.0038 | 513.93
323.13 K, 10899 kPa, x1 = 0.0038 | 532.86
323.13 K, 11125 kPa, x1 = 0.0038 | 553.43
323.13 K, 11428 kPa, x1 = 0.0038 | 577.02
323.13 K, 11636 kPa, x1 = 0.0038 | 591
323.13 K, 11975 kPa, x1 = 0.0038 | 610.86
323.13 K, 12255 kPa, x1 = 0.0038 | 625.25
323.13 K, 12628 kPa, x1 = 0.0038 | 641.9
323.13 K, 13011 kPa, x1 = 0.0038 | 656.88
323.13 K, 13569 kPa, x1 = 0.0038 | 675.56
323.13 K, 14021 kPa, x1 = 0.0038 | 688.77
323.13 K, 15003 kPa, x1 = 0.0038 | 713.06
323.13 K, 16030 kPa, x1 = 0.0038 | 733.89
323.13 K, 17020 kPa, x1 = 0.0038 | 750.95
323.13 K, 18020 kPa, x1 = 0.0038 | 766.06
323.13 K, 19025 kPa, x1 = 0.0038 | 779.54
323.13 K, 20018 kPa, x1 = 0.0038 | 791.52
323.13 K, 21018 kPa, x1 = 0.0038 | 802.54
323.13 K, 22016 kPa, x1 = 0.0038 | 812.65
323.13 K, 23026 kPa, x1 = 0.0038 | 822.13
323.13 K, 24020 kPa, x1 = 0.0038 | 830.83
323.13 K, 25003 kPa, x1 = 0.0038 | 838.9
327.94 K, 14128 kPa, x1 = 0.0198 | 700.18
327.94 K, 15025 kPa, x1 = 0.0198 | 721
327.94 K, 15984 kPa, x1 = 0.0198 | 739.45
327.94 K, 17037 kPa, x1 = 0.0198 | 756.72
327.94 K, 18024 kPa, x1 = 0.0198 | 770.78
327.94 K, 18966 kPa, x1 = 0.0198 | 782.81
327.94 K, 20021 kPa, x1 = 0.0198 | 794.93
327.94 K, 21050 kPa, x1 = 0.0198 | 805.66
327.94 K, 22039 kPa, x1 = 0.0198 | 815.2
327.94 K, 22982 kPa, x1 = 0.0198 | 823.62
327.94 K, 24044 kPa, x1 = 0.0198 | 832.44
327.94 K, 25048 kPa, x1 = 0.0198 | 840.3
327.98 K, 20991 kPa, x1 = 0.0276 | 810.47
327.98 K, 22012 kPa, x1 = 0.0276 | 819.85
327.98 K, 23092 kPa, x1 = 0.0276 | 829.12
327.98 K, 23996 kPa, x1 = 0.0276 | 836.33
327.98 K, 24882 kPa, x1 = 0.0276 | 843.08
327.99 K, 11253 kPa, x1 = 0.0049 | 476.13
327.99 K, 11541 kPa, x1 = 0.0049 | 502.2
327.99 K, 12000 kPa, x1 = 0.0049 | 538.29
327.99 K, 13016 kPa, x1 = 0.0049 | 598.5
327.99 K, 14020 kPa, x1 = 0.0049 | 639.93
327.99 K, 15009 kPa, x1 = 0.0049 | 671.01
327.99 K, 16051 kPa, x1 = 0.0049 | 696.96
327.99 K, 16996 kPa, x1 = 0.0049 | 716.42
327.99 K, 18024 kPa, x1 = 0.0049 | 734.62
327.99 K, 18955 kPa, x1 = 0.0394 | 812.97
327.99 K, 19015 kPa, x1 = 0.0049 | 750.05
327.99 K, 19491 kPa, x1 = 0.0394 | 818.42
327.99 K, 20015 kPa, x1 = 0.0394 | 823.07
327.99 K, 20048 kPa, x1 = 0.0049 | 764.24
327.99 K, 20960 kPa, x1 = 0.0394 | 831.55
327.99 K, 21025 kPa, x1 = 0.0049 | 776.39
327.99 K, 22010 kPa, x1 = 0.0394 | 840.78
327.99 K, 22049 kPa, x1 = 0.0049 | 788
327.99 K, 23023 kPa, x1 = 0.0049 | 798.13
327.99 K, 23040 kPa, x1 = 0.0394 | 848.69
327.99 K, 24009 kPa, x1 = 0.0394 | 855.98
327.99 K, 24079 kPa, x1 = 0.0049 | 808.33
327.99 K, 24881 kPa, x1 = 0.0394 | 861.95
328 K, 12017 kPa, x1 = 0.0093 | 567.42
328 K, 12517 kPa, x1 = 0.0093 | 596.95
328 K, 12987 kPa, x1 = 0.0173 | 652.9
328 K, 13018 kPa, x1 = 0.0144 | 638.84
328 K, 13022 kPa, x1 = 0.0093 | 621.23
328 K, 13497 kPa, x1 = 0.0144 | 656.68
328 K, 13513 kPa, x1 = 0.0173 | 670.93
328 K, 13916 kPa, x1 = 0.0235 | 697.69
328 K, 14000 kPa, x1 = 0.0144 | 672.81
328 K, 14016 kPa, x1 = 0.0173 | 685.86
328 K, 14033 kPa, x1 = 0.0093 | 659.25
328 K, 14510 kPa, x1 = 0.0235 | 712.23
328 K, 14988 kPa, x1 = 0.0235 | 722.58
328 K, 15031 kPa, x1 = 0.0173 | 710.98
328 K, 15041 kPa, x1 = 0.0093 | 688.02
328 K, 15044 kPa, x1 = 0.0144 | 700.6
328 K, 16003 kPa, x1 = 0.0235 | 741.93
328 K, 16024 kPa, x1 = 0.0093 | 710.6
328 K, 16029 kPa, x1 = 0.0173 | 731.18
328 K, 16033 kPa, x1 = 0.0144 | 721.87
328 K, 17009 kPa, x1 = 0.0144 | 739.63
328 K, 17031 kPa, x1 = 0.0093 | 730
328 K, 17033 kPa, x1 = 0.0173 | 748.41
328 K, 17036 kPa, x1 = 0.0235 | 758.59
328 K, 18019 kPa, x1 = 0.0235 | 772.44
328 K, 18021 kPa, x1 = 0.0144 | 755.54
328 K, 18047 kPa, x1 = 0.0173 | 763.56
328 K, 18057 kPa, x1 = 0.0093 | 747.01
328 K, 19027 kPa, x1 = 0.0235 | 785.16
328 K, 19029 kPa, x1 = 0.0173 | 776.56
328 K, 19034 kPa, x1 = 0.0144 | 769.62
328 K, 19042 kPa, x1 = 0.0093 | 761.34
328 K, 20006 kPa, x1 = 0.0093 | 774.02
328 K, 20013 kPa, x1 = 0.0173 | 788.3
328 K, 20015 kPa, x1 = 0.0235 | 796.35
328 K, 20048 kPa, x1 = 0.0144 | 782.23
328 K, 21013 kPa, x1 = 0.0093 | 785.89
328 K, 21023 kPa, x1 = 0.0235 | 806.8
328 K, 21036 kPa, x1 = 0.0173 | 799.42
328 K, 21043 kPa, x1 = 0.0144 | 793.46
328 K, 22023 kPa, x1 = 0.0235 | 816.35
328 K, 22030 kPa, x1 = 0.0144 | 803.66
328 K, 22034 kPa, x1 = 0.0093 | 796.9
328 K, 22064 kPa, x1 = 0.0173 | 809.6
328 K, 23029 kPa, x1 = 0.0173 | 818.53
328 K, 23041 kPa, x1 = 0.0235 | 825.35
328 K, 23052 kPa, x1 = 0.0093 | 807.08
328 K, 23065 kPa, x1 = 0.0144 | 813.57
328 K, 24012 kPa, x1 = 0.0144 | 821.99
328 K, 24037 kPa, x1 = 0.0235 | 833.62
328 K, 24065 kPa, x1 = 0.0093 | 816.43
328 K, 24082 kPa, x1 = 0.0173 | 827.53
328 K, 24770 kPa, x1 = 0.0144 | 828.36
328 K, 24838 kPa, x1 = 0.0173 | 833.72
328 K, 25066 kPa, x1 = 0.0235 | 841.58
328 K, 25067 kPa, x1 = 0.0093 | 825.06
328.08 K, 11635 kPa, x1 = 0.0065 | 518.62
